Source: US20190093163A1, “COMPOSITIONS AND METHODS FOR MAINTAINING SPLICING FIDELITY” (President and Fellows of Harvard College, priority 2015, published 2019)

Tested on: SF1
Assay: Immunoblots of SF1 in WT MEFs treated with TORC1 inhibitors
Type: cell-based
Conditions: mouse embryonic fibroblasts; rapamycin 20 nM, Torin 250 nM
Protocol: To control for the SF1 antibody specificity, WT MEF transfected with non-targeting control siRNAs (siCt) or SF1 siRNA for 72 h and grown in 10% FBS, are shown on the right side of the blot. Biological duplicates are shown except for the siRNA treated lanes.
Immunoblotting was performed as in FIG. 14, Panel G. Biological duplicates are shown except for the siRNA treated lanes.
The inverted splicing reporter WBM535 was made by injecting modified minigene reporter plasmids into N2 worms. The plasmids were made by deleting the (+2) frameshift in the EGFP minigene and inserting a (+2) frameshift into the mCherry minigene. Worms were grown and maintained on standard nematode growth media (NGM) seeded with E. coli (OP50-1). E. coli bacteria were cultured overnight in LB at 37° C., after which 100 μl of liquid culture was seeded on plates to grow for 2 days at room temperature. Lifespans—All lifespans were conducted at 20° C. unless otherwise noted in figure legend. Lifespans were performed as described in Burkewitz et al. (93). Graphpad Prism 6 was used to plot survival curves and determine median lifespan. Survival curves were compared and p values calculated using the log-rank (Mantel-Cox) analysis method. […] RNA interference—All RNAi constructs came from the Ahringer RNAi library, except hrp-2 and hrpf-1 RNAi constructs, which originated from the Vidal RNAi library. RNAi experiments were carried out using E. coli HT115 bacteria on standard NGM plates containing 100 μg/ml Carbenicillin. […] NGM plus Carbenicillin plates were seeded 48 hours before use. Respective dsRNA expressing HT115 bacteria were induced by adding 100 μl IPTG (100 mM) one hour before introducing worms to the plate. RNAi was induced for all experiments from egg hatch. Solid plate-based dietary restriction assays—Solid sDR assays were performed as described by Ching et al. (79). Plates were prepared in advance and stored at 4° C.

CCC(=O)N1CCN(c2ccc(-n3c(=O)ccc4cnc5ccc(-c6cnc7ccccc7c6)cc5c43)cc2C(F)(F)F)CC1 [torin, Torin1]
SF1 gel shifts indicative of altered phosphorylation: nor did were SF1 gel shifts indicative of altered phosphorylation seen | total SF1 levels: no effect

CO[C@H]1C[C@@H]2CC[C@@H](C)[C@@](O)(O2)C(=O)C(=O)N2CCCC[C@H]2C(=O)O[C@H]([C@H](C)C[C@@H]2CC[C@@H](O)[C@H](OC)C2)CC(=O)[C@H](C)/C=C(\C)[C@@H](O)[C@@H](OC)C(=O)[C@H](C)C[C@H](C)/C=C/C=C/C=C/1C [rapamycin]
total SF1 levels: no effect
